The values below come from article PMC9845987 (Cancer research, 2023).

The subject of one series is p-ERK^T202/Y204. Briefly: Quantitative immunofluorescence of p-ERK in MeWo cells. It is filed as cell-based, human. The conditions noted are these: 6 h, different concentrations.
In a further series the test system is p-AKT^S473. Briefly: Quantitative immunofluorescence of p-AKT in MeWo cells. Format: cell-based, human. The conditions noted are these: 6 h, different concentrations.
A further series relates to p-4EBP1^T37/46. The series is described as follows: Quantitative immunofluorescence of p-4EBP1 in MeWo cells. Format: cell-based, human. The conditions noted are these: 6 h, different concentrations.
For series [1], the system named is NF1^LoF melanoma cell lines. Briefly: Growth rate inhibition assay. Format: cell-based, human. Conditions: for Overall drug sensitivity (area over the dose-response curve): NF1^LoF cell lines; for Normalized growth rate (DIP rate) dose response: nine NF1^LoF melanoma cell lines, 7 day-averaged, four concentrations.
The target of the next series is SYK (Homo sapiens, UniProt P43405). The series is described as follows: Biochemical kinase inhibition assay.
The next series concerns the target DNA-PK (Homo sapiens, UniProt P78527). Briefly: Biochemical kinase inhibition assay. The conditions noted are these: 10 μM.
Another series deals with PI4KB (Homo sapiens, UniProt Q9UBF8). Briefly: Biochemical kinase inhibition assay. The conditions noted are these: 10 μM.
Another series addresses mTOR (Homo sapiens, UniProt P42345). The series is described as follows: Biochemical kinase inhibition assay. The conditions noted are these: 10 μM.
The subject of a further series is MeWo cells. Conditions: R406 3.16 μM, 72 h.
The test system of another series is YUHEF cells. The conditions noted are these: R406 3.16 μM, 72 h.
For series [2], the system named is p-AKT^S473 in WM3918 xenograft tumors. The series is described as follows: Xenograft pharmacodynamic Western blot. It is filed as in vivo, mouse. Conditions: single dose 100 mg/kg IP; 0.5 h after dosing.
Series [3] has as its system human epidermal primary melanocytes (NHEM-Ad). The series is described as follows: Growth rate inhibition assay, primary melanocytes. It is filed as cell-based. The conditions noted are these: highest concentration (1 μM).
The next series concerns COLO792 xenografts. The series is described as follows: In vivo xenograft assay, COLO792. The conditions noted are these: 50 mg/kg IP. On the set-up: species or system mouse.
Series [4] concerns p-EGFR^Y1068 in WM3918 xenograft tumors. The series is described as follows: Xenograft pharmacodynamic Western blot. It is filed as in vivo, mouse. The conditions noted are these: single dose 100 mg/kg IP; 0.5 h after dosing.
The next series has as its system WM3918 xenografts. Briefly: In vivo xenograft assay, WM3918. On the set-up: species or system mouse. Conditions: 50 mg/kg IP.
In the next series the test system is p-BLNK^Y96. Briefly: Western blot of p-BLNK in IgM-stimulated Ramos cells. Conditions: 6 h. It is filed as cell-based, human.

pIC50: −log10 of the molar value. Read-outs that look alike come from different tables or passages of the source.

For `COc1ccc(-c2ccc3c(N4CCOC[C@@H]4C)nc(N4CCOC[C@@H]4C)nc3n2)cc1CO` [AZD8055], the “Change in p-ERK^T202/Y204 levels” value in the series with p-ERK^T202/Y204 is on record as “no significant effect”. For the same compound, the “Change in p-AKT^S473 levels” value in the series with p-AKT^S473 is recorded as “decreased p-AKT levels in a dose-dependent manner”. Also, the “Change in p-4EBP1^T37/46 levels” value in the series on p-4EBP1^T37/46 was “potently reduced”.

As to `Cc1nc(-c2nc(-c3ccc(OC(F)(F)F)cc3)no2)nn1Cc1cccc(N2CCC(S(C)(=O)=O)CC2)c1` [IACS-010759], in series [1], the “Overall drug sensitivity (area over the dose-response curve)” value was “similarly sensitive to both IACS-010759 and MTX-216”. Moreover, the “Growth inhibition (live cell count, normalized growth rate)” value in series [1] (all tested NF1^LoF cell lines, indicated doses) was “inhibited growth in a dose-dependent fashion”.

In the case of `CS(=O)(=O)Nc1cc(-c2ccc3ncnc(Nc4ccc(F)c(Cl)c4)c3c2)cnc1Cl` [MTX-211, N-(2-chloro-5-(4-((3-chloro-4-fluorophenyl)amino)quinazolin-6-yl)pyridin-3-yl)methanesulfonamide], the “Change in p-ERK^T202/Y204 levels” value in the series with p-ERK^T202/Y204 is given as “no significant effect”. This compound had a pIC50 against SYK (SYK IC50, 0.5 nM to 10 μM, ATP at Km,app) of roughly 5.22. Also, on SYK (read-out: % inhibition of SYK), the inhibition at 10 µM was determined as 52%. Besides, the “Inhibition of DNA-PK” value on DNA-PK is on record as “inhibited”. The “Inhibition of PI4KB” value on PI4KB is recorded as “inhibited”. Besides, the “Inhibition of mTOR” value on mTOR is reported as “inhibited”. In the series on p-AKT^S473, the “Change in p-AKT^S473 levels” value is “decreased p-AKT levels in a dose-dependent manner”. Also, the “Change in p-4EBP1^T37/46 levels” value in the series with p-4EBP1^T37/46 is on record as “did not decrease p-4EBP1 levels at concentrations below 1 μM”.

Take `COc1cc(Nc2ncc(F)c(Nc3ccc4c(n3)NC(=O)C(C)(C)O4)n2)cc(OC)c1OC` [R406]: the “p-S6 and Ki-67 levels” value is “reduced p-S6 and Ki-67” with MeWo cells; “reduced p-S6 and Ki-67” with YUHEF cells. Besides, the “Reduction of growth rate” value in series [1] (MeWo, YUHEF and WM3918, R406 at 3.16 μM, 7-day) was “approximately 2 fold”.

Consider `CS(=O)(=O)N1CCN(Cc2cc3nc(-c4cccc5[nH]ncc45)nc(N4CCOCC4)c3s2)CC1` [pictilisib], for which the “Change in p-ERK^T202/Y204 levels” value in the series with p-ERK^T202/Y204 is listed as “no significant effect”. The “Change in p-AKT^S473 levels” value in the series on p-AKT^S473 is given as “decreased p-AKT levels in a dose-dependent manner”. Moreover, the “Change in p-4EBP1^T37/46 levels” value with p-4EBP1^T37/46 was “did not decrease p-4EBP1 levels at concentrations below 1 μM”.

Turning to `CC(=O)Nc1cccc(-n2c(=O)n(C3CC3)c(=O)c3c(Nc4ccc(I)cc4F)n(C)c(=O)c(C)c32)c1` [trametinib], in the series on p-ERK^T202/Y204, the “Change in p-ERK^T202/Y204 levels” value was “reduced ERK phosphorylation in a dose-dependent manner”. For the same compound, the “Change in p-AKT^S473 levels” value in the series on p-AKT^S473 is “but not trametinib, decreased p-AKT levels”. Also, the “Change in p-4EBP1^T37/46 levels” value in the series on p-4EBP1^T37/46 is given as “no effect”. Also, the “Normalized growth rate (DIP rate) dose response” value in series [1] is on record as “potent but less efficacious responses”.

In the case of `CC(C)Nc1cc(-c2c[nH]c(C(=O)N[C@H](CO)c3cccc(Cl)c3)c2)c(Cl)cn1` [ulixertinib], the “Normalized growth rate (DIP rate) dose response” value in series [1] is “potent but less efficacious responses”.

In the case of “N-(2-chloro-5-(4-((3-chloro-4-fluorophenyl)amino)-3-cyanoquinolin-6-yl)pyridin-3-yl)methanesulfonamide [MTX-216]”, the “Change in p-ERK^T202/Y204 levels” value in the series on p-ERK^T202/Y204 was “no significant effect”. Moreover, the “% inhibition of SYK” value on SYK (10 μM, ATP at Km,app) worked out at 94%. For the same compound, the “Potency on SYK relative to MTX-211” value at SYK (ratio of IC50) is recorded as ~ 21 fold. Besides, the pIC50 on SYK (read-out: SYK IC50, 0.5 nM to 10 μM, ATP at Km,app) was 6.55. In addition, in [2], the “p-AKT levels in excised tumors” value is on record as “significant reduction”. Moreover, the “Cytotoxicity (normalized growth rate)” value in [3] is listed as “no cytotoxicity”. Also, the Body weight entry in the series with COLO792 xenografts and in the series on WM3918 xenografts was “no major loss in body weight” in each case. For the same compound, the Tumor growth result in the series on COLO792 xenografts (20 days) and with WM3918 xenografts (11 days) was “suppressed tumor growth” in each case. Besides, the “Inhibition of DNA-PK” value at DNA-PK is given as “inhibited”. At PI4KB, the “Inhibition of PI4KB” value is recorded as “inhibited”. Also, the “p-EGFR levels in excised tumors” value in series [4] is “significant reduction”. Besides, the “Inhibition of mTOR” value at mTOR is “inhibited”. Moreover, the “Change in p-AKT^S473 levels” value in the series on p-AKT^S473 is given as “decreased p-AKT levels in a dose-dependent manner”. For the same compound, the “Change in p-4EBP1^T37/46 levels” value with p-4EBP1^T37/46 is reported as “did not decrease p-4EBP1 levels at concentrations below 1 μM”. In addition, the “Overall drug sensitivity (area over the dose-response curve)” value in series [1] was “similarly sensitive to both IACS-010759 and MTX-216”. Besides, in series [1], the “Normalized growth rate (DIP rate) dose response” value is “consistently cytotoxic”. Besides, the “Inhibition of p-BLNK^Y96 levels” value with p-BLNK^Y96 is recorded as “more efficient in inhibition of p-BLNK in comparison with MTX-211”.
